Consider 5 compounds from patent US10716787B2, “Combinations” (ASTEX THERAPEUTICS LTD, priority 2014, dated 2020).

Assay [1] concerns Parental, unsorted H1581 cells. The assay can be described thus: Incucyte live cell imaging proliferation, parental unsorted H1581 cells. Conditions: four days. Set-up: dose or concentration left out as unconfirmed. It counts as cell-based. Here is the method:
Inhibition of growth of H1581^MET(+) cells by combination of FGFR and MET inhibitors. Parental, unsorted H1581 cells, and sorted H1581^Met(+) cells, subpopulation of H1581 cells that have high Met expression, were plated at 75000 cells per well in 24 well plate. […] Images were acquired every two hours. Proliferation of cells was presented as the mean of percentage of confluence±SD (n=2).

In assay [2] the test system is resistant NCI-H1581 xenografts. The assay can be described thus: In vivo study, resistant NCI-H1581 xenografts. Set-up: species or system Athymic nude mice. Conditions: compound A 25 mg/kg p.o. QD for 37 d. On the procedure: Athymic nude mice were inoculated with resistant NCI-H1581 cells (10e^6 cells/200 μl with matrigel, ratio 1:1, into the inguinal region of the mice).
All mice (84) were put into groups (4) and treated from the day of the cell injection.
The mice were treated orally (po), normal volume (250 μl/25 g) once daily and this for 37 days (QD×37). Measurement of the tumor volume was done at day 0, 5, 12, 15, 20, 23, 27, 30, 33, 37.
At day 37 all animals were sacrificed.

Assay [3] deals with NCI-H1581 cells. The assay can be described thus: Incucyte proliferation (confluence over time), prolonged treatment of NCI-H1581 cells. It counts as cell-based. Conditions: 1 microM each agent. On the procedure: (§1) Therefore, NCI-H1581 cells were plated onto 10 cm Collagen I coated plates and placed in an incubator at 37° C., 5% CO2. […] In the case of the parental cells with or without DMSO control, when the cells reached the confluence close to 100% they were trypsinized and re-plated back on the plate. […] After about 3 weeks from the initial treatment, cells were taken out of the plate by trypsinization and passaged on new plate for further expanding. […] (test 1)
The proliferation of the cells was followed using the Incucyt machine, measuring the confluence of the cells over time.

Assay [4] concerns parental NCI-H1581 cells. The experiment in a line: Alamar blue proliferation assay, parental NCI-H1581 cells. It counts as cell-based. Conditions: for IC50: 4 days incubation. Here is the method:
as §1
Therefore the parental and resistant cells were profiled on phosphoRTK (receptor tyrosine kinase) arrays, and also for Met total protein expression and phosphorylation. The sensitivity of the cells to selected Met inhibitors (compound C and D) in the Alamar blue proliferation assay was also tested.
(§2) Cells were seeded in 180 μl of medium at optimized cell densities in black 96 well plates with clear flat bottom. The outer wells were filled with 180 μl of medium. Cells were incubated for 24 hours at 37° C. and 5% CO2.
(§3) Next day compound dilutions were prepared in a 96 well plate with round bottom (Corning #3365). A 50× dilution of the compound was prepared in medium, 4 μl of compound stock in 196 μl of medium in a 96 well plate (Corning #3585).
(§4) Compound/medium plates were placed on a shaker for 10 minutes and then 20 μl of compound in medium was added to the cells (10× dilution). Cells were incubated at 37° C. and 5% CO2 for 4 days until alamarBlue® readout.
(§5) After 4 days of incubation with compound: Add 40 μl of alamarBlue® ready to use mix to each well. Incubate plates at 37° C. and 5% CO2. Measure plates after 4 or 6 hours of incubation (depends on cell line). Shake plates and measure RFU at ex.: 544 nm and em.: 590 nm
(§6) The alamarBlue® Assay incorporates a fluorometric/colorimetric growth indicator based on detection of metabolic activity. Specifically, the system incorporates an oxidation-reduction (REDOX) indicator that both fluoresces and changes color in response to chemical reduction of growth medium resulting from cell growth.

The test system of assay [5] is resistant NCI-H1581 cells. The experiment in a line: Alamar blue proliferation assay, resistant NCI-H1581 cells. It counts as cell-based. Conditions: for IC50: Resistant cells, 4 days incubation, repeated experiments. Here is the method:
The insensitive cells were isolated and profiled with the aim to determine the active signaling pathways that act as drivers for their survival and/or proliferation. Therefore, NCI-H1581 cells were plated onto 10 cm Collagen I coated plates and placed in an incubator at 37° C., 5% CO2. […] In the case of the parental cells with or without DMSO control, when the cells reached the confluence close to 100% they were trypsinized and re-plated back on the plate. In the compound treated plates outgrowth of resistant clones were observed. After about 3 weeks from the initial treatment, cells were taken out of the plate by trypsinization and passaged on new plate for further expanding. […] (test 1)
(§7) Therefore the parental and resistant cells were profiled on phosphoRTK (receptor tyrosine kinase) arrays, and also for Met total protein expression and phosphorylation. The sensitivity of the cells to selected Met inhibitors (compound C and D) in the Alamar blue proliferation assay was also tested. […] Parental NCI-H1581 cells had very low detectable levels of Met protein, and no signal for Met protein phosphorylation (see FIG. 1).
as §2, §3, §4, §5, §6
On the technique in general: Alamar Blue is a resazurin reagent that responds to reducing activity.

Assay [6] relates to Met protein. The experiment in a line: Western blotting of Met phosphorylation in resistant NCI-H1581 cells. It counts as cell-based. Conditions: 300 nM, 30 minutes. Here is the method: FIG. 1: Western blotting of protein lysates derived from parental and resistant NCI-H1581 cells treated without (−) or with (+) Met inhibitor, 300 nM compound C, for 30 minutes.
as §7
In general terms: In western blotting, separated proteins are transferred to a membrane and probed.

Assay [7] has as its system Met oncogene. The experiment in a line: Microarray gene expression profiling of resistant versus parental NCI-H1581 cells. Conditions: 1 microM, 1 day, 1 week and 2 weeks. It counts as cell-based. Here is the method:
as §1

The subject of assay [8] is most sensitive cancer cell lines. The assay can be described thus: Alamar blue cell based proliferation assay, most sensitive cancer cell lines. On the procedure: as §2, §3, §4, §5, §6
[9] abbreviates: Homo sapiens, NCI-H1581, 96 h, Parental cells.

Usually IC50 stands for the concentration that inhibits the measured activity by half.

The structures appear in SMILES notation.

As for `COc1cc(OC)cc(N(CCNC(C)C)c2ccc3ncc(-c4cnn(C)c4)nc3c2)c1` [compound A, N-(3,5-dimethoxyphenyl)-N′-(1-methylethyl)-N-[3-(1-methyl-1H-pyrazol-4-yl)quinoxalin-6-yl]ethane-1,2-diamine], the “cell growth (confluence)” value in assay [1] is on record as “equally inhibited”. Also, in assay [2], the tumor growth entry was “did not have effect on tumor growth”. In addition, the “emergence of resistance (outgrowth of insensitive cells)” value in assay [3] (continuous treatment) is recorded as “after about three weeks emerging outgrowth of compound insensitive cells was observed”.
For `FC(F)(c1ccc2ncccc2c1)c1nnc2ccc(-c3ccncc3)nn12` [compound D, 6-[Difluoro(6-pyridin-4-yl[1,2,4]triazolo[4,3-b]pyridazin-3-yl)methyl]quinoline], the “proliferation of the parental NCI-H1581 cells (in words)” value in assay [4] is given as “but not of the parental NCI-H1581 cells”. Besides, the IC50 is over 30000 nM in assay [4] (Homo sapiens, NCI-H1581, 96 h, Parental cells + DMSO); over 10000 nM in assay [4] (setting [9]); 341 nM in assay [5] (Homo sapiens, NCI-H1581, 96 h); 444 nM in assay [5]. Besides, in assay [5], the “proliferation of the resistant NCI-H1581 cells (in words)” value is reported as “strongly inhibited”. Further, in assay [3], the “proliferation (confluence of the cells over time)” value was “did not impact the proliferation”.
Regarding `Cn1cc(-c2ccc3nnc(C(F)(F)c4ccc5ncccc5c4)n3n2)cn1` [compound C, 6-{Difluoro[6-(1-methyl-1H-pyrazol-4-yl)[1,2,4]triazolo[4,3-b]pyridazin-3-yl]methyl}quinoline], the “proliferation of the parental NCI-H1581 cells (in words)” value in assay [4] is given as “but not of the parental NCI-H1581 cells”. Besides, in assay [4] (setting [9]), the IC50 is over 30000 nM. Moreover, the Met phosphorylation entry in assay [6] is “down regulated significantly”. Also, in assay [5], the “proliferation of the resistant NCI-H1581 cells (in words)” value is given as “strongly inhibited”.
`COc1cc(OC)c(F)c(N(Cc2ncc[nH]2)c2ccc3ncc(-c4cnn(C)c4)nc3n2)c1` [compound B, N-(2-fluoro-3,5-dimethoxyphenyl)-N-(1H-imidazol-2-ylmethyl)-3-(1-methyl-1H-pyrazol-4-yl)pyrido[2,3-b]pyrazin-6-amine]: the “Met oncogene expression (microarray)” value in assay [7] is given as “upregulated in a time dependent manner”. Moreover, the IC50 in assay [8] was under 10 nM.
Turning to `C[C@@H](Oc1cc(-c2cnn(C3CCNCC3)c2)cnc1N)c1c(Cl)ccc(F)c1Cl` [crizotinib, reference compound], the IC50 in assay [4] (setting [9]) came out at 6910 nM; in assay [4] (Parental cells) it was 4950 nM; in assay [5] (Homo sapiens, NCI-H1581, 96 h) it was 198 nM; in assay [5] it was 165 nM.
